Experimental data published in the NIST ThermoML archive (doi:10.1021/acs.jced.9b00068).
± gives the expanded uncertainty stated by the source.

Columns and labels:
[1] = refractive index (Na D-line) (dimensionless); conditions: 298.15 K; 101.33 kPa; Liquid; Standard Abbe refractometry
[2] = Liquid; for mass density: 298.15 K, 101.33 kPa, Vibrating tube method; for vapor or sublimation pressure: Ebulliometric method (Recirculating still)

| refractive index [1] | mass density [2] [kg/m3] | vapor or sublimation pressure ([2]; 399.6 K) [kPa] | vapor or sublimation pressure ([2]; 421.6 K) [kPa] | vapor or sublimation pressure ([2]; 337.5 K) [kPa] | vapor or sublimation pressure ([2]; 330.2 K) [kPa] | vapor or sublimation pressure ([2]; 362.5 K) [kPa] | vapor or sublimation pressure ([2]; 373.8 K) [kPa] | Compound |
| --- | --- | --- | --- | --- | --- | --- | --- | --- |
| 1.3999 ± 0.0004 | 872.3 ± 0.2 | – | 100.17 ± 2 | – | – | – | – | CCCCCOC(C)=O [pentyl ethanoate] |
| 1.3587 ± 0.0004 | 927.4 ± 0.2 | – | – | – | 100.17 ± 2 | – | – | COC(C)=O [methyl ethanoate] |
| 1.3815 ± 0.0004 | 882.9 ± 0.2 | – | – | – | – | – | 100.17 ± 2 | CCCOC(C)=O [propyl ethanoate] |

More lines, now with the values behind:

| Compound | refractive index [1] | mass density [2] [kg/m3] | vapor or sublimation pressure ([2]; 399.6 K) [kPa] | vapor or sublimation pressure ([2]; 421.6 K) [kPa] | vapor or sublimation pressure ([2]; 337.5 K) [kPa] | vapor or sublimation pressure ([2]; 330.2 K) [kPa] | vapor or sublimation pressure ([2]; 362.5 K) [kPa] | vapor or sublimation pressure ([2]; 373.8 K) [kPa] |
| --- | --- | --- | --- | --- | --- | --- | --- | --- |
| CCOC(=O)OCC [diethyl carbonate] | 1.3821 ± 0.0004 | 969.4 ± 0.2 | 100.17 ± 2 | – | – | – | – | – |
| CO [methanol] | 1.3275 ± 0.0004 | 787.7 ± 0.2 | – | – | 100.17 ± 2 | – | – | – |
| COC(=O)OC [dimethyl carbonate] | 1.3664 ± 0.0004 | 1062.7 ± 0.2 | – | – | – | – | 100.17 ± 2 | – |
